pKd, pKi: −log10 of the molar value. One block for each molecule: values may come before it.
Experiments:
FR2 = FR2 (Homo sapiens, UniProt P14207); details: read-out: affinity; cited from earlier work
FR1 = FR1 (Homo sapiens, UniProt P15328); details: read-out: affinity; cited from earlier work
[1] = target: KIFC1/microtubule (MT) binary complex (Homo sapiens, UniProt Q9BW19); details: ATP-competitive, MT-noncompetitive; cited from earlier work
[2] = tested on: BT-549 breast cancer cells; details: BT-549 cells with amplified centrosomes; cited from earlier work
PC-3 cells [3] = assay: Clonogenic survival assay, PC-3 cells; type: cell-based, human; details: 2 mg/mL, pH 7.4, PC-3 cells
Method: (§1) PhosE was ineffective in inhibiting proliferation and colony formation of these cell lines up to 100 mg/ml (data not shown).

CYP = assay: CYP-related drug-drug interaction liability; type: in vitro ADME
Excerpt: (§2) ADM E and pharmacological properties of orally-delivered PhosE and Etn [both phosphatidylethanolamine (PE) lipid precursors] were first compared. […] Our mechanistic studies identified CK overexpression—a hallmark of metabolic reprogramming in multiple cancer types—in prostate tumor cells compared to adjacent normal. […] It was hypothesize that an Etn-based formulation can be developed into a safe, selective, pharmacodynamically- and pharmacokinetically-favorable, IND entity that singly or synergistically with the ICI Nivolumab, provides a novel therapeutic option for chemo-resistant EOCs/OCCC.

PC-3 cells [4] = assay: Annexin V flow cytometry, PC-3 cells; type: cell-based, human
[5] = tested on: PC-3, DU145, C42B and RWPE-1 cells; assay: MTT cell survival, prostate cancer lines versus normal prostate cells; type: cell-based; details: 0.5 and 1 mg/mL, 48 hours, pH 7.4
Method: as §1

[6] = tested on: MDA-MB-468, OVCAR-3, HCT116 and CFPAC cells; assay: MTT dose-response on cancer cell lines from diverse tissues; type: cell-based
Method: as §1

[7] = GI tract stability, Etn compared with PhosE; type: in vitro ADME; details: compared to PhosE
Excerpt: as §2

HIF1-α = HIF1-α immunoblot of treated cell lysates; type: cell-based; details: Etn-treated cells
Method: (§3) FIG. 5. (A) Immunoblots of control and Etn-treated cell lysates for HIF1-α. […] Intracellular glucose (Ci) and glutamine (Cii) levels in control and Etn-treated tumors. (D) Effect of choline kinase inhibition on intracellular levels of glucose (Di) and glutamine (Dii) in Etn-treated cells.
(§4) It was hypothesized that PhosE accumulation alters HIF1-a expression/function that impairs glucose/glutamine metabolism leading to metabolic stress, which activates p53-induced cell death. […] OCR was measured in control and Etn-treated cells, and evaluated the glucose and glutamine content in (a) cultured cells and (b) tumors from control and Etn-treated mice. […] Inhibition of CK abrogated the Etn-mediated decrease in cellular glucose and glutamine content (FIGS. 5Di, ii).

PC-3 cells [8] = assay: Oxygen consumption rate in PC-3 cells; type: cell-based, human
Method: as §3, §4

[9] = tested on: prostate cancer xenograft (PC-3-luc tumors); assay: Prostate cancer xenograft model, oral treatment; type: in vivo, mice
Excerpt: FIG. 3. (Ai) Representative bioluminescent images of one animal per group indicating progression of tumor growth over 4 weeks in control and Etn-treated mice. (Aii) Tumor growth monitored (by vernier calipers) over a period of 4 weeks. (Aiii) Weight of tumors from control and Etn-treated mice.
The in vivo efficacy of this formulation was first examined (FIG. 3A). There was an ˜67% reduction in tumor volume (FIG. 3Aii) and ˜55% reduction in tumor weight (FIG. 3Aiii) after 4 weeks of treatment.

PC-3 cells [10] = assay: Immunoblots of cell cycle and apoptosis markers in PC-3 cell lysates; type: cell-based, human
Excerpt: (§5) FIG. 4. (A) Immunoblots of control and Etn-treated cell lysates for pRb, cdk4, cdk2, p21, c-PARP, Bim, Bcl-2 and β actin. […] (C) Immunoblots of control and Etn-treated tumors lysates for p53, p21, Bax, pBcl-2, c-PARP, Bim, Bid and β actin. (D) Micrographs showing IHC staining of Ki67 and c-PARP in control and Etn-treated prostate cancer xenografts.

PC-3 cells [11] = assay: PC-3 survival on Etn treatment with or without choline kinase inhibitor; type: cell-based, human; details: with CK inhibition
Excerpt: (§6) FIG. 2. […] (B) Effect of choline kinase inhibition on proliferation of PC-3 cells. (C) Intracellular PhosE level upon Etn treatment.

[12] = tested on: prostate cancer xenograft tumors; assay: Glucose and glutamine content of tumors; type: in vivo, mice; details: versus control
Method: as §3, §4

[13] = tested on: prostate cancer xenografts; assay: Immunoblots and IHC of xenograft tumors; type: in vivo, mice
Excerpt: as §5

PC-3 cells [14] = assay: MTT cell survival/proliferation assay, PC-3 cells; type: cell-based, human; details: 48 hours, pH 7.4, compared with PhosE
Method: as §1

cultured cells = assay: Glucose and glutamine content of cultured cells; type: cell-based; details: versus control
Method: as §3, §4

PC-3 cells [15] = assay: Intracellular Etn and PhosE levels in treated PC-3 cells; type: cell-based, human; details: PC-3 cells treated with Etn or PhosE
Excerpt: as §6

[16] = tested on: prostate cancer xenograft tumors; assay: TEM and LC/MS-MS lipidomics of xenograft tumors; type: in vivo, mice
Excerpt: FIG. 6. […] Ultra-thin sections were cut on Boeckeler MTx ultramicrotome, counterstained with lead citrate, and examined on a LEO 906e TEM. Mitochondria and accumulated lipid granules are highlighted by red arrows. […] Left panels, scale bar ¼2 […]; right panels, scale bar ¼5 mm. […] Levels of PE (i), PS (ii), PC (iii), and SM (iv) lipids in control and Etn-treated tumors. In the abbreviation of lipid, 1st and 2nd numbers denote the number of carbon atoms and unsaturated bonds present in the lipid, respectively. Lipid amounts were quantified by LC/MS-MS. Values and error bars shown represent mean and SE, respectively.
Lipidomic analyses of tumors from control and Etn-treated groups quantified 402 lipids from various lipid classes such as phosphatidylethanolamine (PE), phosphatidylcholine (PC), phosphatidylserine (PS), lysophospholipids, ceramides, and sphingomyelin (SM). Levels of 21 PE lipids (FIG. 6Bi), and other lipids from the PS (FIG. 6Bii), PC (FIG. […]), and SM (FIG. 6Biv) classes were increased in Etn-treated tumors. Thus, PhosE and phospholipid accumulation downregulates HIF-1α, precipitates a bioenergetics/metabolic crisis, activates p53-mediated signaling and culminates in cell death.

[17] = 40 mg/kg Etn, pH=5.0, oral, after 4 weeks

Sequence of KIFC1/microtubule (MT) binary complex (Q9BW19 whole entry, species assumed): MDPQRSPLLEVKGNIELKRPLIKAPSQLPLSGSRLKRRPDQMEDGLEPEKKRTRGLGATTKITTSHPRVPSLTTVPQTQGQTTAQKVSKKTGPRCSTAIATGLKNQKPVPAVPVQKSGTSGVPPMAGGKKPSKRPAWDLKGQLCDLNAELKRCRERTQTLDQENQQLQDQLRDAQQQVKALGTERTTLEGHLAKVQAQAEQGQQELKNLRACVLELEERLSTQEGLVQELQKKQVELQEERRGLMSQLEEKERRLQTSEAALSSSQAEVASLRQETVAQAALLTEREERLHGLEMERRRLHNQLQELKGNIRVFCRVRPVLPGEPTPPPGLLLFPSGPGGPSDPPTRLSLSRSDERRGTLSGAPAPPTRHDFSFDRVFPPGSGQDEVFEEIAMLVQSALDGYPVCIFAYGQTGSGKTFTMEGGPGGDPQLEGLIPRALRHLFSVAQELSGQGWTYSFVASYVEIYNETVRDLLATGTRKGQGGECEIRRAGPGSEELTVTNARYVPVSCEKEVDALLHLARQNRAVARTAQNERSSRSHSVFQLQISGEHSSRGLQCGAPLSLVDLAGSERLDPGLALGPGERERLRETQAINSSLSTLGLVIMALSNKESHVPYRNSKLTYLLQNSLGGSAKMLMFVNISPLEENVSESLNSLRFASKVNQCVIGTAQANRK
Sequence of KIFC1/microtubule (MT) binary complex (P68363 whole entry partner, species assumed): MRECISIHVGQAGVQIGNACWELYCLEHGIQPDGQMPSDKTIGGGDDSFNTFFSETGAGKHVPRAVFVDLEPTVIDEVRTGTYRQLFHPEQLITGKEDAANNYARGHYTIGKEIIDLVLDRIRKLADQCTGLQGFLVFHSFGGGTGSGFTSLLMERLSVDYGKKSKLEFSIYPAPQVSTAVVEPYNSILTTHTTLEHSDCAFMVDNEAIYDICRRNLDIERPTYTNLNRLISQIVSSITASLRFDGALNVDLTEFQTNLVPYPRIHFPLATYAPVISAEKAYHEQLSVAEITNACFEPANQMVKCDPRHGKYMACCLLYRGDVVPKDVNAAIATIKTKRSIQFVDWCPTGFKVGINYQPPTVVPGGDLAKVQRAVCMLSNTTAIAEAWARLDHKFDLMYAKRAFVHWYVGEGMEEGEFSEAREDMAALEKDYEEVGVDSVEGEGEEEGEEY
Sequence of KIFC1/microtubule (MT) binary complex (Q9BVA1 whole entry partner, species assumed): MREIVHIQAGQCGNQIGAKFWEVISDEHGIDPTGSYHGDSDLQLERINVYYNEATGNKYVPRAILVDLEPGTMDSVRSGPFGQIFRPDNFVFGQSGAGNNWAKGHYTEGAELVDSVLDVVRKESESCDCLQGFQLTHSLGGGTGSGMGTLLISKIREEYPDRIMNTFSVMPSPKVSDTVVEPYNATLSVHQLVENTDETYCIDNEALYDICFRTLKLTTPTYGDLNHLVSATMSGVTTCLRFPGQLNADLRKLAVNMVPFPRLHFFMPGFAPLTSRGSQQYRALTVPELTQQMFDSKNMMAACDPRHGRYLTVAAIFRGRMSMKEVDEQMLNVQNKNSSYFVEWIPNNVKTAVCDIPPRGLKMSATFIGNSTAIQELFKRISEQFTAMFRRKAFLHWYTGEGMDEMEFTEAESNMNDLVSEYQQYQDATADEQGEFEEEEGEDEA
Sequence of FR1 (P15328 25-234): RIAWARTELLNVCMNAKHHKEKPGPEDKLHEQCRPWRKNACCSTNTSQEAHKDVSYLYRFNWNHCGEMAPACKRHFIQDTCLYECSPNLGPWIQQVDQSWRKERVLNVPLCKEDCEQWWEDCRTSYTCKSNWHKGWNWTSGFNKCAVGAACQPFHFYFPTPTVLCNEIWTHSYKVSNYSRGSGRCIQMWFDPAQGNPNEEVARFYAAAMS
Sequence of FR2 (P14207 17-230): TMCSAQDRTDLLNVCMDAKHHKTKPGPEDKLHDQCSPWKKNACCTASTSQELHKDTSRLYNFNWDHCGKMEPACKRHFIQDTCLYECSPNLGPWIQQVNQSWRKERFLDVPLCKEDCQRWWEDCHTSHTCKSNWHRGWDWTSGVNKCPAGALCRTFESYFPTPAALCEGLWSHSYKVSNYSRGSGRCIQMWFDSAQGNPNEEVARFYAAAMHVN

Compound: CN1c2c(nc(N)[nH]c2=O)NC[C@@H]1CNc1ccc(C(=O)N[C@@H](CCC(=O)O)C(=O)O)cc1 [6S 5-methyltetrahydrofolate]
pKd (FR2): 9.00 | pKd (FR1): 7.26

Compound: CCCc1cc(C(=O)N[C@H](Cc2ccc(-c3cccc(OC(F)(F)F)c3)nc2)C(=O)N[C@@H]2CCNC2)sc1C [AZ82]
pKi [1]: 7.37 | centrosome declustering [2]: causes centrosome declustering

GI tract stability [7]: better GI tract stability
Compound: NCCO [Etn, Monoethanolamine]
decrease in colony numbers (PC-3 cells [3]): ~97% | CYP-related drug-drug interaction liability (CYP): lacked CYP-related drug-drug interaction liability | annexin-V positive apoptotic cells (PC-3 cells [4]): increased the number of annexin-V positive apoptotic cells | reduction of viability, prostate cancer lines versus normal prostate cells [5]: more effective in reducing viability of prostate cancer lines | inhibition of proliferation ([6]; breast, ovary, colon and pancreas cell lines): inhibited proliferation in all the cell lines tested | HIF1-a expression (HIF1-α): strongly downregulated | oxygen consumption rate (OCR) (PC-3 cells [8]): decreased OCR | body weight ([9]; 40 mg/kg Etn, oral, over 4 weeks): no change in body weight | reduction in tumor volume [9, 17]: ~67% | reduction in tumor weight [9, 17]: ~55% | intratumoral Etn ([9]; after 4 weeks of Etn treatment): no significant change | intratumoral PhosE level versus controls ([9]; after 4 weeks of Etn treatment): ~38% | apoptosis markers (c-PARP, Bim, Bcl-2) (PC-3 cells [10]): increased levels of proapoptotic markers such as c-PARP and Bim, and decreased antiapoptotic molecules such as Bcl-2 | cell cycle markers (pRb, Cdk4, Cdk2, p21) (PC-3 cells [10]): downregulated pRb, Cdk4, and Cdk2, and upregulated p21 | antiproliferative activity in presence of CK inhibitor (PC-3 cells [11]): significantly attenuated | conversion of Etn into PhosE in presence of CK inhibitor (PC-3 cells [11]): reduced conversion of Etn into PhosE | glucose content [12]: significantly reduced | glutamine content [12]: significantly reduced | tumor lysate markers (p53, p21, Bax, pBcl2, c-PARP, Bim, Bid) ([13]; 40 mg/kg Etn): upregulation of p53, p21, Bax, pBcl2, c-PARP, Bim and Bid | Ki67 and c-PARP expression (IHC) in tumors ([13]; treated versus control tumors): marked decrease in Ki67 expression and increase in c-PARP expression | inhibition of PC-3 cell proliferation (PC-3 cells [14]): more effective | glucose content (cultured cells): significantly reduced | glutamine content (cultured cells): significantly reduced | intracellular PhosE levels (PC-3 cells [15]): more pronounced | mitochondrial morphology (TEM) ([16]; 40 mg/kg Etn-treated tumors versus controls): elongated mitochondria with highly degraded matrices | levels of PE, PS, PC and SM lipids ([16]; Etn-treated tumors, LC/MS-MS): increased

Compound: NCCOP(=O)(O)O [PhosE, phosphoethanolamine, reference compound]
decrease in colony numbers (PC-3 cells [3]): ineffective in decreasing colony numbers | inhibition of proliferation and colony formation ([6]; up to 100 mg/ml, data not shown): ineffective | inhibition of tumor growth compared with Etn ([9]; orally delivered formulations): less effective than Etn | intracellular PhosE levels (PC-3 cells [15]): increased intracellular PhosE levels

— patent US20230144385A1, “ETHANOLAMINE FORMULATION FOR TREATING EPITHELIAL OVARIAN CARCINOMA” (METANOI THERAPEUTICS, INC., priority 2020, published 2023)
